{"source": "patent US10654889B2", "about": "“Peptide having anticancer activity, and pharmaceutical composition, health functional food composition and functional cosmetic composition for preventing and treating cancer comprising the same as active ingredient” (INDUSTRY-UNIVERSITY COOPERATION FOUNDATION HANYANG …, priority 2016, dated 2020)", "key": {"cancer cells": {"test_system": "cancer cells", "details": "cell and mouse xenograft models; Grant et al. 2012; cited from earlier work"}, "[1]": {"test_system": "breast cancer cell line (MDA-MB-231)", "experiment": "Cell growth inhibition and apoptosis induction, breast cancer cell line", "assay_type": "cell-based", "details": "for growth inhibition and apoptosis-inducing effects: 0.05-10 μM, 0-96 hours; for growth inhibition and apoptosis-inducing effects (cell images, MTT assay, FIG. 6): compared to the untreated control, 48 hours images, 96 hours MTT", "protocol": "(§1) An embryonic kidney cell line (293T), a breast cancer cell line (MDA-MB-231), and colon cancer cell lines (HCT116 and HT29) were inoculated in a 96-well plate at a density of 3,000 cells/well, and 50 μL of a culture fluid was added thereto. The resulting mixture was cultured for an hour under 37° C./5% CO2 conditions. Each of the peptides prepared in Example 3 was added at an increasing concentration of 0.05, 1, 2, 3 and 10 μM to the well plate inoculated with each of the cell lines, and the resulting mixture was cultured for 0, 24, 48, 72 and 96 hours under 37° C./5% CO2 conditions. When the culture was completed, the cells were observed and their morphological changes were imaged using an inverted phase contrast microscope."}, "[2]": {"test_system": "embryonic kidney cell line (293T)", "experiment": "Cell growth inhibition and apoptosis induction, embryonic kidney cell line", "assay_type": "cell-based", "details": "for growth inhibition and apoptosis-inducing effects: 0.05-10 μM, 0-96 hours; for growth inhibition and apoptosis-inducing effects (cell images, MTT assay, FIG. 6): compared to the untreated control, 48 hours images, 96 hours MTT", "protocol": "as §1"}, "[3]": {"test_system": "colon cancer cell line HCT116", "experiment": "Cell growth inhibition and apoptosis induction, colon cancer cell line HCT116", "assay_type": "cell-based", "details": "for growth inhibition and apoptosis-inducing effects: 0.05-10 μM, 0-96 hours; for growth inhibition and apoptosis-inducing effects (cell images, MTT assay, FIG. 6): compared to the untreated control, 48 hours images, 96 hours MTT", "protocol": "as §1"}, "[4]": {"test_system": "colon cancer cell line HT29", "experiment": "Cell growth inhibition and apoptosis induction, colon cancer cell line HT29", "assay_type": "cell-based", "details": "for growth inhibition and apoptosis-inducing effects: 0.05-10 μM, 0-96 hours; for growth inhibition and apoptosis-inducing effects (cell images, MTT assay, FIG. 6): compared to the untreated control, 48 hours images, 96 hours MTT", "protocol": "as §1"}, "[5]": {"test_system": "liver cancer cell line (Hep3B)", "experiment": "Cell growth inhibition and apoptosis, liver cancer cell line (MTT, CCK, Crystal Violet)", "assay_type": "cell-based", "details": "Hep3B treated once with peptide; compared to 5-2C-treated group", "from_the_text": "The peptides were used to analyze effects on cell growth inhibition and apoptosis in the liver cancer cell line (Hep3B). FIGS. […] 8C and 8D graphically show the growth inhibition and apoptosis-inducing effects of the respective peptides at different concentrations. […] Therefore, it can be seen that the peptide of SEQ ID NO: 1 according to the present invention is a peptide having a sequence composed of an optimized number of amino acids to have anticancer activity."}, "leukemia cells": {"test_system": "leukemia cells", "experiment": "Growth inhibition and apoptosis in leukemia cells", "assay_type": "cell-based", "details": "compared with Peptide 5-2C"}, "breast cancer cells": {"test_system": "breast cancer cells", "experiment": "Growth inhibition and apoptosis in breast cancer cells", "assay_type": "cell-based", "details": "compared with Peptide 5-2C"}, "colon cancer cells": {"test_system": "colon cancer cells", "experiment": "Growth inhibition and apoptosis in colon cancer cells", "assay_type": "cell-based", "details": "compared with Peptide 5-2C"}, "liver cancer cells": {"test_system": "liver cancer cells", "experiment": "Growth inhibition and apoptosis in liver cancer cells", "assay_type": "cell-based", "details": "compared with Peptide 5-2C"}, "kidney-derived cells": {"test_system": "kidney-derived cells", "experiment": "Growth inhibition and apoptosis in kidney-derived cells", "assay_type": "cell-based", "details": "compared with Peptide 5-2C"}, "various cells": {"test_system": "various cells", "experiment": "IC50 in various cells (MTT, FIG. 16)", "assay_type": "cell-based", "details": "compared with Peptide 5-2C"}}, "data": [{"molecule": "CCOc1ccccc1C1CC(=O)Nc2cc3c(cc21)OCO3", "note": "(centres unmarked) [FQI1, Factor Quinolinone Inhibitor 1]", "values": [{"measurement": "inhibition of cancer cells versus normal cells", "setting": "cancer cells", "result": "successful in inhibiting only the cancer cells without exerting any influence on normal cells"}]}, {"molecule": "Ac-NYPQRcrgdkgpdc-amide [Peptide 5-2-51C]", "values": [{"measurement": "growth inhibition and apoptosis-inducing effects", "setting": "[1]", "result": "exhibited growth inhibition and apoptosis-inducing effects"}, {"measurement": "growth inhibition and apoptosis-inducing effects (cell images, MTT assay, FIG. 6)", "setting": "[1]", "result": "superior growth inhibition and apoptosis-inducing effects"}, {"measurement": "growth inhibition and apoptosis-inducing effects", "setting": "[2]", "result": "exhibited growth inhibition and apoptosis-inducing effects"}, {"measurement": "growth inhibition and apoptosis-inducing effects (cell images, MTT assay, FIG. 6)", "setting": "[2]", "result": "superior growth inhibition and apoptosis-inducing effects"}, {"measurement": "growth inhibition and apoptosis-inducing effects", "setting": "[3]", "result": "exhibited growth inhibition and apoptosis-inducing effects"}, {"measurement": "growth inhibition and apoptosis-inducing effects (cell images, MTT assay, FIG. 6)", "setting": "[3]", "result": "superior growth inhibition and apoptosis-inducing effects"}, {"measurement": "growth inhibition and apoptosis-inducing effects", "setting": "[4]", "result": "exhibited growth inhibition and apoptosis-inducing effects"}, {"measurement": "growth inhibition and apoptosis-inducing effects (cell images, MTT assay, FIG. 6)", "setting": "[4]", "result": "superior growth inhibition and apoptosis-inducing effects"}]}, {"molecule": "Ac-PQRcrgdkgpdc-amide [Peptide 5-2-32C]", "values": [{"measurement": "growth inhibition and apoptosis-inducing effects", "setting": "[1]", "result": "no growth inhibition and apoptosis-inducing effects at all"}]}, {"molecule": "Ac-YPQRPcrgdkgpdc-amide [Peptide 5-2-52C]", "values": [{"measurement": "growth inhibition and apoptosis-inducing effects", "setting": "[1]", "result": "exhibited growth inhibition and apoptosis-inducing effects"}, {"measurement": "growth inhibition and apoptosis-inducing effects (cell images, MTT assay, FIG. 6)", "setting": "[1]", "result": "superior growth inhibition and apoptosis-inducing effects"}, {"measurement": "growth inhibition and apoptosis-inducing effects", "setting": "[2]", "result": "exhibited growth inhibition and apoptosis-inducing effects"}, {"measurement": "growth inhibition and apoptosis-inducing effects (cell images, MTT assay, FIG. 6)", "setting": "[2]", "result": "superior growth inhibition and apoptosis-inducing effects"}, {"measurement": "growth inhibition and apoptosis-inducing effects", "setting": "[3]", "result": "exhibited growth inhibition and apoptosis-inducing effects"}, {"measurement": "growth inhibition and apoptosis-inducing effects (cell images, MTT assay, FIG. 6)", "setting": "[3]", "result": "superior growth inhibition and apoptosis-inducing effects"}, {"measurement": "growth inhibition and apoptosis-inducing effects", "setting": "[4]", "result": "exhibited growth inhibition and apoptosis-inducing effects"}, {"measurement": "growth inhibition and apoptosis-inducing effects (cell images, MTT assay, FIG. 6)", "setting": "[4]", "result": "superior growth inhibition and apoptosis-inducing effects"}]}, {"molecule": "Ac-YPQRcrgdkgpdc-amide [Peptide 5-2-4C]", "values": [{"measurement": "growth inhibition and apoptosis-inducing effects", "setting": "[1]", "result": "exhibited growth inhibition and apoptosis-inducing effects"}, {"measurement": "growth inhibition and apoptosis-inducing effects (cell images, MTT assay, FIG. 6)", "setting": "[1]", "result": "superior growth inhibition and apoptosis-inducing effects"}, {"measurement": "growth inhibition and apoptosis-inducing effects", "setting": "[2]", "result": "exhibited growth inhibition and apoptosis-inducing effects"}, {"measurement": "growth inhibition and apoptosis-inducing effects (cell images, MTT assay, FIG. 6)", "setting": "[2]", "result": "superior growth inhibition and apoptosis-inducing effects"}, {"measurement": "growth inhibition and apoptosis-inducing effects", "setting": "[3]", "result": "exhibited growth inhibition and apoptosis-inducing effects"}, {"measurement": "growth inhibition and apoptosis-inducing effects (cell images, MTT assay, FIG. 6)", "setting": "[3]", "result": "superior growth inhibition and apoptosis-inducing effects"}, {"measurement": "growth inhibition and apoptosis-inducing effects", "setting": "[4]", "result": "exhibited growth inhibition and apoptosis-inducing effects"}, {"measurement": "growth inhibition and apoptosis-inducing effects (cell images, MTT assay, FIG. 6)", "setting": "[4]", "result": "superior growth inhibition and apoptosis-inducing effects"}, {"measurement": "change in IC50 values observed for 3 days", "setting": "[5]", "result": "steadily decreasing over 3 days, a level of which was highly similar to that of Peptide 5-2C"}, {"measurement": "growth inhibition and apoptosis", "setting": "leukemia cells", "result": "a tendency very similar to Peptide 5-2C"}, {"measurement": "growth inhibition and apoptosis", "setting": "breast cancer cells", "result": "a tendency very similar to Peptide 5-2C"}, {"measurement": "growth inhibition and apoptosis", "setting": "colon cancer cells", "result": "a tendency very similar to Peptide 5-2C"}, {"measurement": "growth inhibition and apoptosis", "setting": "liver cancer cells", "result": "a tendency very similar to Peptide 5-2C"}, {"measurement": "growth inhibition and apoptosis", "setting": "kidney-derived cells", "result": "a tendency very similar to Peptide 5-2C"}, {"measurement": "IC50 value at 48 hours", "setting": "various cells", "result": "very similar to that of Peptide 5-2C"}]}, {"molecule": "Ac-YPQcrgdkgpdc-amide [Peptide 5-2-31C]", "values": [{"measurement": "growth inhibition and apoptosis-inducing effects", "setting": "[1]", "result": "no growth inhibition and apoptosis-inducing effects at all"}]}, {"molecule": "CRGDKGPDC [iRGD, reference compound]", "values": [{"measurement": "growth inhibition and apoptosis-inducing effects", "setting": "[1]", "result": "no growth inhibition and apoptosis-inducing effects at all"}]}]}
